What all share (format): in vivo
Data set [1] deals with VZV gE. As to the kind of experiment: Serum VZV gE-binding IgG levels (LUMINEX) in LAV-experienced C57BL/6 mice. Particulars: for Day 35 (GMC), serum gE-binding IgG: C57BL/6 mice, LAV SQ Day 0, Day 35 prior to immunization; for Day 63 (GMC), serum gE-binding IgG / Day 76 (GMC), serum gE-binding IgG: LAV-experienced C57BL/6 mice; for Day 63 (GMC), serum gE-binding IgG: Day 63 (1 month post dose 1); for Day 76 (GMC), serum gE-binding IgG: Day 76 (13 days post dose 2/boost). How it is done: Serum IgG levels were determined for each mouse sample using the LUMINEX® platform. Briefly, diluted sera were incubated in the dark in the presence of blocked, recombinant gE protein-bound single-plex microspheres (MAGPLEX® Microspheres, region 79) for 20±4 hours at 2-8° C., 300 rpm. A secondary antibody solution (R-phycoerythrin Conjugated AffiniPure F(ab)′2 Fragment Goat Anti-Mouse IgG F(ab)′2 Fragment Specific) was prepared at 1:250 in LXA-16 buffer. Plates were washed three times in LXA-20 (EIA-7), and secondary antibody was applied to each well of the assay plate. Plates were covered with aluminum sealers and incubated for 2 hours±15 minutes at 25° C., 300 rpm. Plates were washed three times with LXA-20 (EIA-7) buffer, and 100 ul LXA-20 was applied to each well. Plates were covered with aluminum sealers and incubated at 25° C., 300 rpm for a minimum of 4 minutes, or up to 2 hours. Plates were analyzed on a BIO-PLEX® Reader. IgG titers for Day, 28, 34 and 42 are show in Table 10 and FIGS. 17-19.
(§1) VZV RNA-LNP vaccines were tested for their ability to induce IgG and T cell responses in C57BL/6 mice. 15 mice per group were immunized in accordance with the schedule and specification in Table 11. Briefly, 10 or 15 mice per group were primed subcutaneously (SQ) on Day 0 with a live-attenuated varicella (LAV) vaccine (VARIVAX®, Merck) using a full human dose per mouse (1350 pfu), immunized intramuscularly (IM) on Day 35 day and boosted on Day 63. The “infection” with a LAV vaccine mimics exposure to VZV that humans receive when infected with VZV as children and develop chickenpox.
(§2) Mice immunized with SHINGRIX® received 1, 2.5, or 5 μg, corresponding to 1/50, 1/20, and 1/10 of the human clinical dose, respectively; mice immunized with gE_WT CO2 received 0.5 or 1 μg VZV RNA-LNP; mice immunized with ms5 CO1 received 0.5 or 1 ug VZV RNA-LNP; mice immunized with ms6 CO2 received 0.5 or 1 ug VZV RNA-LNP; and mice immunized with lyophilized gE_WT CO2 received 0.5 or 1 ug VZV RNA-LNP. Saline was administered on Day 35 and 63 to a negative control group. Sera was collected from mice on Day 35, 63 and 76 for characterization of VZV gE-binding IgG levels (LUMINEX® analyses). Spleens were harvested on Day 48 (13 days post dose 1 for selected groups) and Day 76 for cellular analysis (T cell and B cell responses).
Serum IgG levels were determined for each mouse sample using the LUMINEX® platform (described herein). IgG titers for Day 35, 63 (1 month post dose 1) and 76 (13 days pose dose 2) are show in Table 12 and FIGS. 22-24. Each data point in the figures is a result from an individual animal; each horizontal lines represents the geometric mean IgG concentration (μg/ml) and whiskers represent the 95% confidence interval.

Data set [2] has as its system VZV gE. Kind of data set: Frequency of gE-specific IgG+ B cells in splenocytes of LAV-experienced C57BL/6 mice (flow cytometry). The settings on record: percentage of IgG-expressing B cells. How it is done: as §1, §2
Vaccine-induced B cell response was evaluated by measuring the frequencies of VZV gE-specific B cells in the spleen. Wild type gE protein ectodomain with streptag was coupled to streptavidin (SA)-fluorochromes PE and APC, both from BioLegend in the ratio of 2:1 in separate tubes for 1 hour at room temperature (RT) at 20× of desired staining concentration (10 μg/mL for each protein). Each of the SA-fluorochrome-coupled spike proteins were pooled and diluted to 1× using flow cytometry (FC) buffer (2% FBS/PBS) to generate B-cell probes to identify gE-specific B cells. Single cell suspensions of splenocytes (5×10^6 cells per well) were first washed in PBS and stained with eFluor 506 Fixable Viability dye for 10 minutes at RT to identify live from dead cells. Following washes in FC buffer, cells were incubated with 50 μL/well of 1×B-cell probe for 30 to 45 minutes and then washed to remove unbound probes. Cells were surface stained with a cocktail of flow cytometry antibodies (CD19, IgD, IgM, IgD, All from BioLegend) to identify B cell surface phenotypes. Following washing, cells were fixed using BD Fixation buffer and suspended in FC buffer. Cells were acquired on LSR Fortessa and data analyzed by FlowJo (10.7.1). The results of gE-specific B cells were expressed as the percentage of IgG-expressing B cells.
Background: Flow cytometry measures light scatter and fluorescence of single cells or particles in a stream.

The subject of data set [3] is VZV gE. Kind of data set: IFN-γ ELISpot of gE peptide-stimulated splenocytes from LAV-experienced C57BL/6 mice. Particulars: Day 48 (13 days post dose 1), 1 μg IM Day 35. On the procedure: VZV RNA-LNP vaccines were tested for their ability to induce IgG and T cell responses in C57BL/6 mice. 15 mice per group were immunized in accordance with the schedule and specification in Table 11. Briefly, 10 or 15 mice per group were primed subcutaneously (SQ) on Day 0 with a live-attenuated varicella (LAV) vaccine (VARIVAX®, Merck) using a full human dose per mouse (1350 pfu), immunized intramuscularly (IM) on Day 35 day and boosted on Day 63. The “infection” with a LAV vaccine mimics exposure to VZV that humans receive when infected with VZV as children and develop chickenpox. […]
Vaccine-induced T cell response was measured following ex vivo stimulation of splenocytes with gE peptide pool (2 μg/mL of each peptide) by ELISpot and Intracellular Cytokine Staining (ICS) assay (described herein). […] T cell IFN-γ response was measured using Mabtech Mouse IFN-γ ELISpot PLUS kit (ALP) and expressed as spot forming cells (SFC) per million cells. The ICS assay measured IFN-γ-expressing cells within CD4^+ and CD8^+ T cells expressed as percentage of IFN-γ^+ cells within CD4^+ and CD8^+ T cells. […]

Setting [4] is: Day 48 (13 days post dose 1), 1 μg IM Day 35.
[5] abbreviates: Day 76 (13 days post dose 2/boost), 1 μg IM Days 35 and 63.

Consider “ms5 CO1: modRNA construct, ORF SEQ ID NO: 153, VZV gE with deletion of aa 582-623”, for which the “Day 35 (GMC), serum gE-binding IgG” value in the data set with VZV gE [1] (0.5 μg group) stood at 0.11 µg/mL; in the data set on VZV gE [1] (1 μg group), 0.14 µg/mL. Further, the “Day 63 (GMC), serum gE-binding IgG” value worked out at 41 µg/mL in the data set on VZV gE [1] (0.5 μg IM Day 35) and 76 µg/mL in the data set with VZV gE [1] (1 μg IM Day 35). The “Day 76 (GMC), serum gE-binding IgG” value in the data set on VZV gE [1] (0.5 μg IM Days 35 and 63) came to 556 µg/mL; in the data set on VZV gE [1] (1 μg IM Days 35 and 63) it was 530 µg/mL. Moreover, the “gE-specific IgG+ B cells” value with VZV gE [2] (setting [4]) was determined as 4.14%; with VZV gE [2] (setting [5]) it was 2.19%. Further, the “gE-specific IFN-γ+ cells (ELISpot)” value with VZV gE [3] was 1068 SFC per million cells.

Regarding “ms6 CO2: modRNA construct, ORF SEQ ID NO: 157, VZV gE with deletion of aa 539-623, secreted”, the figures for the “Day 35 (GMC), serum gE-binding IgG” value with VZV gE [1] (0.5 μg group) and in the data set on VZV gE [1] (1 μg group) were 0.28 µg/mL and 0.19 µg/mL, respectively. In addition, the “Day 63 (GMC), serum gE-binding IgG” value in the data set on VZV gE [1] (0.5 μg IM Day 35) is 50 µg/mL; in the data set on VZV gE [1] (1 μg IM Day 35), 58 µg/mL. Moreover, the “Day 76 (GMC), serum gE-binding IgG” value in the data set on VZV gE [1] (0.5 μg IM Days 35 and 63) was 464 µg/mL; in the data set on VZV gE [1] (1 μg IM Days 35 and 63) it was 723 µg/mL. In addition, the results for the “gE-specific IgG+ B cells” value in the data set on VZV gE [2] (setting [4]) and in the data set with VZV gE [2] (setting [5]) were 1.85% and 1.38%, respectively. The “gE-specific IFN-γ+ cells (ELISpot)” value in the data set on VZV gE [3] is 150 SFC per million cells.

The values are drawn from patent publication US20230233671A1, “RNA MOLECULES” (Pfizer Inc., priority 2021, published 2023).
